In patent US20030130180A1, “Utilization of an aminopeptidase inhibitor” (priority 2000, published 2003):

Key:
tumor cells [1] = conditions: cited from earlier work; for tumor cell invasion: in vitro, matrigel analytic system
[2] = system: tumor cells and immune cells; assay: Cell-biological experiments on blocking of polarization of tumor cells and immune cells; type: cell-based; conditions: general statement
Text: By means of a method of simultaneously detecting a number of cell surface proteins, it has been established that aminopeptidases will control cell surface proteins which are not part of the class of proteolytic enzymes, but belong to the class of the adhesion molecules, which adhesion molecules—in a certain combination and geometric array—will be decisive for the polarization of the cells. Consequently, aminopeptidases appear to be superordinate control proteins in a protein network consisting of up to 30 different cell surface protein species which—through specific interaction with one another—will control polarization of tumor cells and other invasive cells such as immune cells and which are listed above. The inhibition of at least one aminopeptidase will lead to a reproducible modification of surface protein combinations on the cell surface which will always also involve a modification of CD13. […] The term polarization as used here shall denote a process in which a primarily spherical cell will transition into an oblong, elongated cell shape, via various intermediate states. This process which constitutes a change of shape controlled by the complex protein network is the prerequisite for cell migration, since only cells of oblong shape are capable of migrating. The polarization process therefore needs to precede all cell migration processes, including invasion. […]

tumor cells [3] = conditions: cited from earlier work

SMILES | formation of cell extensions (tumor cells [1]) | tumor cell invasion (tumor cells [1]) | modification of the surface proteins of the protein network [2] | degradation of type IV collagen (tumor cells [3]) | invasion of tumor cells (tumor cells [3]) | tumor cell adhesion and migration to the extracellular matrix (tumor cells [3])
CCc1cccc(CC)c1N1C(=O)Cc2ccccc2C1=O [PIQ-22] | suppression of the formation of cell extensions | inhibition of the invasion |  |  |  | 
CC(C)C[C@H](NC(=O)[C@@H](O)[C@H](N)Cc1ccccc1)C(=O)O [bestatin] | no effect | do not have an effect | leading to a modification of the surface proteins of the protein network | capable of preventing degradation of the type IV collagen | preventing the invasion of tumor cells | does not have any influence
